Assay results taken from US11173151B2, “Substituted triazole derivatives and uses thereof” (BAYER AKTIENGESELLSCHAFT, priority 2017, dated 2021).

Legend:
human V1a receptor = target: T1, human V1a receptor (Homo sapiens, UniProt P37288); assay: Cellular in vitro assay for determining vasopressin receptor activity, V1a receptor cell line (CHO, aequorin luminescence); assay type: cell-based; conditions: for IC50: CHO cell line transfected with human V1a receptor, [Arg]-vasopressin at EC50 concentration, read-out: IC50 hV1a; for ratio IC50 hV2/hV1a: selectivity ratio IC50 hV2 / IC50 hV1a
T1 construct: expressed in transfected cells; host or cells: CHO K1 (ATCC), also stably transfected with a modified aequorin
T1 sequence (P37288 whole entry): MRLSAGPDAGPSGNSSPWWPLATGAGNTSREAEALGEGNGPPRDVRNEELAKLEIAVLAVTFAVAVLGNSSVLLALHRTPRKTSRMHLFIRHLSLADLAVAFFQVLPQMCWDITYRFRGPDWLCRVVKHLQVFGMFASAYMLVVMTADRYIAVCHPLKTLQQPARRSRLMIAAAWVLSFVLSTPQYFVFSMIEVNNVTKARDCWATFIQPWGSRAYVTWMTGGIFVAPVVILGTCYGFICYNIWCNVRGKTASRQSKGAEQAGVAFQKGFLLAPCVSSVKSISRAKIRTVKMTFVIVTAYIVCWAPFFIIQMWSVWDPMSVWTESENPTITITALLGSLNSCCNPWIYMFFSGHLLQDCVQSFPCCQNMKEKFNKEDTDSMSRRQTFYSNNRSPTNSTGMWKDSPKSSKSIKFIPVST
How it was run: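 CHO K1/aequorin cells, coelenterazine 5 μg/ml o/n; cpd 10 min; [Arg]-vasopressin at EC50; luminescence read immediately; IC50.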

human V2 receptor = target: T2, human V2 receptor (Homo sapiens, UniProt P30518); assay: Cellular in vitro assay for determining vasopressin receptor activity, V2 receptor cell line (CHO, CRE-luciferase); assay type: cell-based; conditions: CHO cell line transfected with human V2 receptor; [Arg8]-vasopressin at EC50 concentration; read-out: IC50 hV2
T2 construct: expressed in transfected cells; host or cells: CHO K1 (ATCC) expressing firefly luciferase under a CRE-responsive promoter
T2 sequence (P30518 whole entry): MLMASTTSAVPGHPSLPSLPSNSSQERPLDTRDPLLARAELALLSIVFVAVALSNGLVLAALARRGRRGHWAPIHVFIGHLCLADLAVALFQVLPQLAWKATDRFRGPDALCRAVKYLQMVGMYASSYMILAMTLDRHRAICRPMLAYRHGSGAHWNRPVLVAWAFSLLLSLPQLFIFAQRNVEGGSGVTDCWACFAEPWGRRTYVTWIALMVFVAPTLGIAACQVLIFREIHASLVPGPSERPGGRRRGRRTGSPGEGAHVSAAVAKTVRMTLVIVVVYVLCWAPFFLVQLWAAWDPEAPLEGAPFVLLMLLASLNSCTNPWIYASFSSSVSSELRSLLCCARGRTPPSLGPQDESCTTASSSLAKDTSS

Row | SMILES | IC50 (human V1a receptor) | ratio IC50 hV2/hV1a (human V1a receptor) | IC50 (human V2 receptor)
1 | COC[C@@H]1CCCN1C(=O)c1cccc(C(F)(F)F)c1-n1cnc(Cn2nc(-c3ccc(Cl)cc3)n(C[C@H](O)C(F)(F)F)c2=O)n1 [Example 423, 5-(4-Chlorophenyl)-2-({1-[2-{[(2S)-2-(methoxymethyl)pyrrolidin-1-yl]carbonyl}-6-(trifluoromethyl)phenyl]-1H-1,2,4-triazol-3-yl}methyl)-4-[(2S)-3,3,3-trifluoro-2-hydroxypropyl]-2,4-dihydro-3H-1,2,4-triazol-3-one] | 0.04 µM | 472.5 | 18.9 µM
2 | CC(C)(N)CNC(=O)c1cc(F)ccc1-n1cnc(Cn2nc(-c3ccc(Cl)cc3)n(C[C@H](O)C(F)(F)F)c2=O)n1 [Example 424, N-(2-Amino-2-methylpropyl)-2-[3-({3-(4-chlorophenyl)-5-oxo-4-[(2S)-3,3,3-trifluoro-2-hydroxypropyl]-4,5-dihydro-1H-1,2,4-triazol-1-yl}methyl)-1H-1,2,4-triazol-1-yl]-5-fluorobenzamide] | 0.0115 µM | 230.4 | 2.65 µM
3 | CNC(=O)c1cc(F)ccc1-n1cnc(Cn2nc(-c3ccc(Cl)cc3)n(C[C@H](O)C(F)(F)F)c2=O)n1 [Example 425, 2-[3-({3-(4-Chlorophenyl)-5-oxo-4-[(2S)-3,3,3-trifluoro-2-hydroxypropyl]-4,5-dihydro-1H-1,2,4-triazol-1-yl}methyl)-1H-1,2,4-triazol-1-yl]-5-fluoro-N-methylbenzamide] | 0.00985 µM | 10.2 | 0.1 µM
4 | O=C(NCC(F)(F)F)c1cc(F)ccc1-n1cnc(Cn2nc(-c3ccc(Cl)cc3)n(C[C@H](O)C(F)(F)F)c2=O)n1 [Example 426, 2-[3-({3-(4-Chlorophenyl)-5-oxo-4-[(2S)-3,3,3-trifluoro-2-hydroxypropyl]-4,5-dihydro-1H-1,2,4-triazol-1-yl}methyl)-1H-1,2,4-triazol-1-yl]-5-fluoro-N-(2,2,2-trifluoroethyl)benzamide] | 0.019 µM | 6.6 | 0.125 µM
5 | O=C(NCC(F)(F)F)c1cc(Cl)ccc1-n1cnc(Cn2nc(-c3ccc(Cl)cc3)n(C[C@H](O)C(F)(F)F)c2=O)n1 [Example 427, 5-Chloro-2-[3-({3-(4-chlorophenyl)-5-oxo-4-[(2S)-3,3,3-trifluoro-2-hydroxypropyl]-4,5-dihydro-1H-1,2,4-triazol-1-yl}methyl)-1H-1,2,4-triazol-1-yl]-N-(2,2,2-trifluoroethyl)benzamide] | 0.021 µM | 3.5 | 0.0727 µM
6 | O=C(NCC(F)(F)F)c1ncccc1-n1cnc(Cn2nc(-c3ccc(Cl)cc3)n(C[C@H](O)C(F)(F)F)c2=O)n1 [Example 428, 3-[3-({3-(4-Chlorophenyl)-5-oxo-4-[(2S)-3,3,3-trifluoro-2-hydroxypropyl]-4,5-dihydro-1H-1,2,4-triazol-1-yl}methyl)-1H-1,2,4-triazol-1-yl]-N-(2,2,2-trifluoroethyl)pyridine-2-carboxamide] | 0.041 µM | 31.5 | 1.29 µM
7 | O=C(NC1CC1)c1ncccc1-n1cnc(Cn2nc(-c3ccc(Cl)cc3)n(C[C@H](O)C(F)(F)F)c2=O)n1 [Example 431, 3-[3-({3-(4-Chlorophenyl)-5-oxo-4-[(2S)-3,3,3-trifluoro-2-hydroxypropyl]-4,5-dihydro-1H-1,2,4-triazol-1-yl}methyl)-1H-1,2,4-triazol-1-yl]-N-cyclopropylpyridine-2-carboxamide] | 0.0165 µM | 66.7 | 1.1 µM
8 | O=C(NCC1CC1)c1ncccc1-n1cnc(Cn2nc(-c3ccc(Cl)cc3)n(C[C@H](O)C(F)(F)F)c2=O)n1 [Example 432, 3-[3-({3-(4-Chlorophenyl)-5-oxo-4-[(2S)-3,3,3-trifluoro-2-hydroxypropyl]-4,5-dihydro-1H-1,2,4-triazol-1-yl}methyl)-1H-1,2,4-triazol-1-yl]-N-(cyclopropylmethyl)pyridine-2-carboxamide] | 0.0445 µM | 21.2 | 0.945 µM
